Results on 3 compounds are retold here after patent US20140120036A1, “RADIOLABELED 5-HT6 LIGANDS” (AbbVie Inc., priority 2012, published 2014).

Data set [1] is described as follows: Brain regional distribution of [3H]compound relative to cerebellum. Format: in vivo.
The nature of another data set: Rat microsome half-life. As to conditions: rat microsomes, read-out: Rat microsome T½ (mm). Format: in vitro ADME.
In a further data set the target is T1, h-5-HT6 receptor (Homo sapiens, UniProt P50406).
T1 construct: expressed in transfected cells
Description: 5-HT6 receptor binding assay ([3H]-LSD displacement, HEK293 membranes). The note with it: human 5-HT6. The procedure: The cells were collected by centrifugation at 500 g for 10 min. at 4° C., washed with PBS and centrifuged (500 g, 10 min. 4° C.). The pellets were stored at −80° C. until use. For membrane preparation, the thawed cell pellet was resuspended in ice-cold sucrose buffer (0.25 M sucrose, 10 mM Hepes (pH 7.4), 1 mM Phenylmethylsulfonyl fluoride (PMSF) in DMSO, […] Pepstatin-A, 3 mM EDTA, 0.025% Bacitracin) and homogenized with a Branson Sonifier W-250 (Settings: Timer 4; Output Control 3; Duty Cycle constant; 2 to 3 cycles). Cell disruption was checked with the aid of a microscope. Remaining unbroken cells were pelleted at 1,000 g for 10 min. at 4° C. The sucrose buffer supernatant was then centrifuged at 60,000 g for 1 h at 4° C. […] Protein concentration was determined (BCA-Kit; Pierce) and aliquots stored at −80° C. or in liquid nitrogen for long-term storage.
After the plates had been dried for 2 h at 55° C. in a drying chamber scintillation cocktail (BetaPlate Scint; PerkinElmer) was added. Radioactivity was measured in a Microbeta Trilux two hours after the addition of the scintillation mixture. Data derived from liquid scintillation counting were analysed by iterative non-linear regression analysis with the use of the Statistical Analysis System (SAS): a program similar to “LIGAND” as described by Munson and Rodbard (Analytical Biochemistry 107, 220-239 (1980). […]

In the next data set the target is T2, h-5-HT2B receptor (Homo sapiens, UniProt P41595).
T2 construct: purchased Perkin Elmer ES-3,4-M400UA; host or cells: CHO-K1 cell membranes
The data set is described as follows: 5-HT2B receptor binding assay ([125I]-DOI displacement, CHO-K1 membranes). As to conditions: text. As to the method:
Cells from stable clonal cell lines expressing the corresponding receptor (5-HT6, 5-HT2A or 5-HT2B receptors) were washed with PBS with 0.02% EDTA. The cells were collected by centrifugation at 500 g for 10 min. at 4° C., washed with PBS and centrifuged (500 g, 10 min. 4° C.). The pellets were stored at −80° C. until use. For membrane preparation, the thawed cell pellet was resuspended in ice-cold sucrose buffer (0.25 M sucrose, 10 mM Hepes (pH 7.4), 1 mM Phenylmethylsulfonyl fluoride (PMSF) in DMSO, […] Pepstatin-A, 3 mM EDTA, 0.025% Bacitracin) and homogenized with a Branson Sonifier W-250 (Settings: Timer 4; Output Control 3; Duty Cycle constant; 2 to 3 cycles). Cell disruption was checked with the aid of a microscope. Remaining unbroken cells were pelleted at 1,000 g for 10 min. at 4° C. The sucrose buffer supernatant was then centrifuged at 60,000 g for 1 h at 4° C. (Beckman Ultrazentrifuge XL 80). […] Protein concentration was determined (BCA-Kit; Pierce) and aliquots stored at −80° C. or in liquid nitrogen for long-term storage.
All receptor binding experiments were carried out in the corresponding assay buffer in a total volume of 200 μl in the presence of various concentrations of test compound (10 ^−5 M to 10^−9 M, tenfold serial dilution, duplicate determinations). […] Radioactivity was measured in a Microbeta Trilux two hours after the addition of the scintillation mixture. […]

A further data set deals with Rat 5-HT6 (Rattus norvegicus, UniProt P31388). The data set is described as follows: Rat 5-HT6 binding.
In data set [2] the target is 78 targets (CEREP) other than the 5-HT6 receptor. The data set is described as follows: Selectivity panel, 78 targets (CEREP). The class given is binding. As to conditions: all but the 5-HT2B and 5-HT2A receptors, read-out: Ki at ancillary targets.
Data set [3] can be described thus: Rat PK (0.05 mg/kg, iv), plasma and brain concentrations. Format: in vivo. The note with it: for Free B/P Ratio: free brain concentration divided by free plasma concentration.
The target of another data set is T3, h-5-HT2A receptor (Homo sapiens, UniProt P28223).
T3 construct: purchased Perkin Elmer ES-3,3-M400UA; host or cells: CHO-K1 cell membranes
Description: 5-HT2A receptor binding assay ([125I]-DOI displacement, CHO-K1 membranes). As to the method: The cells were collected by centrifugation at 500 g for 10 min. at 4° C., washed with PBS and centrifuged (500 g, 10 min. 4° C.). The pellets were stored at −80° C. until use. For membrane preparation, the thawed cell pellet was resuspended in ice-cold sucrose buffer (0.25 M sucrose, 10 mM Hepes (pH 7.4), 1 mM Phenylmethylsulfonyl fluoride (PMSF) in DMSO, […] Pepstatin-A, 3 mM EDTA, 0.025% Bacitracin) and homogenized with a Branson Sonifier W-250 (Settings: Timer 4; Output Control 3; Duty Cycle constant; 2 to 3 cycles). Cell disruption was checked with the aid of a microscope. Remaining unbroken cells were pelleted at 1,000 g for 10 min. at 4° C. The sucrose buffer supernatant was then centrifuged at 60,000 g for 1 h at 4° C. (Beckman Ultrazentrifuge XL 80). The pellet was resuspended in 30 ml ice-cold Tris buffer (20 mM TRIS (pH 7.4), […] Pepstatin A, 0.1 mM PMSF, 3 mM EDTA) by pipetting through a 10 ml serological pipet and centrifuged for 1 h at 4° C. at 60,000 g. A final resuspension was performed in a small volume of ice-cold Tris buffer (see above) by pressing through a serological pipet followed by ultrasonic treatment with a Branson Sonifier W-250 (Settings: Timer 1; Output Control 3; Duty Cycle constant; 1 cycle). Protein concentration was determined (BCA-Kit; Pierce) and aliquots stored at −80° C. or in liquid nitrogen for long-term storage.
After the plates had been dried for 2 h at 55° C. in a drying chamber scintillation cocktail (BetaPlate Scint; PerkinElmer) was added. Radioactivity was measured in a Microbeta Trilux two hours after the addition of the scintillation mixture. Data derived from liquid scintillation counting were analysed by iterative non-linear regression analysis with the use of the Statistical Analysis System (SAS): a program similar to “LIGAND” as described by Munson and Rodbard (Analytical Biochemistry 107, 220-239 (1980).
Data derived from liquid scintillation counting were analyzed by iterative non-linear regression analysis with the use of the Statistical Analysis System (SAS): a program similar to “LIGAND” as described by Munson and Rodbard (Anal. Biochem. 1980, 107, 220-239). Fitting was performed according to formulae described by Feldman (Anal. Biochem. 1972, 48, 317-338).

The next data set concerns the target Mk striatum 5-HT6 (Macaca mulatta, UniProt A0A5F7ZDI3). Description: Mk striatum 5-HT6 binding. Details: species or system Mk (monkey).

Read-outs that look alike come from different tables or passages of the source. A value given as a limit tells only on which side of the number the result lay.

T3 sequence (P28223 whole entry): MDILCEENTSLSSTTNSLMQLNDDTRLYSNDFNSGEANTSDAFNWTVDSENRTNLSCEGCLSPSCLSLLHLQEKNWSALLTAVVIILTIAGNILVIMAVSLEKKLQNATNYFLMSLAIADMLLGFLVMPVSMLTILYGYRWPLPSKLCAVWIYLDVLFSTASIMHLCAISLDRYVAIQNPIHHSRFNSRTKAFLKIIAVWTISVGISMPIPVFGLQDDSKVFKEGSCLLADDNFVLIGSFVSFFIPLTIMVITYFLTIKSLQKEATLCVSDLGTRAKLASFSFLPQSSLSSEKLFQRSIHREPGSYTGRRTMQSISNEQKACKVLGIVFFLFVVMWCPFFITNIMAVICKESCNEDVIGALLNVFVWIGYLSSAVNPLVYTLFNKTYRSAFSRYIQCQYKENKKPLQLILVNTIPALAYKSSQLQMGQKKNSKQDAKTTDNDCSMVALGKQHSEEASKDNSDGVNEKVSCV
T2 sequence (P41595 whole entry): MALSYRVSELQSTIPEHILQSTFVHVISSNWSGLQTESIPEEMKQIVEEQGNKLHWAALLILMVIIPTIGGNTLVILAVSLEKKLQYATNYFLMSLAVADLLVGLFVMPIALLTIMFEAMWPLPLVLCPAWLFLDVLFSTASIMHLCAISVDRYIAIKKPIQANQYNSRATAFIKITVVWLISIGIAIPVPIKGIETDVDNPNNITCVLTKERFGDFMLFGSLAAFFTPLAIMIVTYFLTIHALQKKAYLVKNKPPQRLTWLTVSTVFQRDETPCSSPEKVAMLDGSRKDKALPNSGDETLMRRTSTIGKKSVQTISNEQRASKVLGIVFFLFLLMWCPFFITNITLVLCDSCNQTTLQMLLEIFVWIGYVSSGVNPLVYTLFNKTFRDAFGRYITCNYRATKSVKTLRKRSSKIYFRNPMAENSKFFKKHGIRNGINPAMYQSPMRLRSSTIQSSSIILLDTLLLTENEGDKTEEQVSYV
T1 sequence (P50406 whole entry): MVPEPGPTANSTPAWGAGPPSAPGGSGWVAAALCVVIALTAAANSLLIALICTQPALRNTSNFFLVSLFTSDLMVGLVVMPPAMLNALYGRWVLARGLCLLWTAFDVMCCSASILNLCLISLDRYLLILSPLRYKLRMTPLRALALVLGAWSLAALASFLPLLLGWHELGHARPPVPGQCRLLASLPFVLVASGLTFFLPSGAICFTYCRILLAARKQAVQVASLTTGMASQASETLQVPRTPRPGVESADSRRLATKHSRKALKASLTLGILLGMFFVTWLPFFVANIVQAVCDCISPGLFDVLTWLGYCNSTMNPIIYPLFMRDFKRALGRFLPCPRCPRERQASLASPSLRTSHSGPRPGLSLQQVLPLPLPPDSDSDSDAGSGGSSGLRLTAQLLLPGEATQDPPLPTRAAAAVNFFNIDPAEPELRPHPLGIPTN
Mk striatum 5-HT6, sequence (A0A5F7ZDI3 1-440): as the sequence (P50406 whole entry) above, with A41V, A49V, L141P, V304A, R342W, R393Q, Q406R, E429K, P432L, I437T counted along it
Rat 5-HT6, sequence (P31388 whole entry): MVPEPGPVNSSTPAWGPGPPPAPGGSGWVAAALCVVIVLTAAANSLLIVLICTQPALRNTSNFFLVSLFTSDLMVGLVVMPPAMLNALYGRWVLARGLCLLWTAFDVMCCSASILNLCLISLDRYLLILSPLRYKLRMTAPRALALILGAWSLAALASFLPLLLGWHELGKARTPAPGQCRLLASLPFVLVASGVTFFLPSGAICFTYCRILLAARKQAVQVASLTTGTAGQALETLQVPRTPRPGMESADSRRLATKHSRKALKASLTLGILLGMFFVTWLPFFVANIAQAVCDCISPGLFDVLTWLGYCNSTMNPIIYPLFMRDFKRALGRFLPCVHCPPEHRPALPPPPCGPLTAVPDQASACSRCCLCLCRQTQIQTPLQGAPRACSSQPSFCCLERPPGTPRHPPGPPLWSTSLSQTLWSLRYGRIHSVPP

As to “1-(5-(3-(difluoromethoxy)phenylsulfonyl)-2-methoxyphenyl)-4-([^3H]methyl)-piperazine [Example 3]”, in data set [1] (3 min after dose), the Hippo./Cer. came to 3.7 and the Striatum/Cer. stood at 10.4. In data set [1] (40 min after dose), this compound displayed a Hippo./Cer. of 1.4 and a Striatum/Cer. of 2.0.
Regarding `COc1ccc(S(=O)(=O)c2cccc(OC(F)F)c2)cc1N1CCN(C)CC1` [Example 1, 4-(5-(3-(difluoromethoxy)phenylsulfonyl)-2-methoxyphenyl)-1-methylpiperazin-1-ium chloride], the half-life in “Rat microsome half-life” is 10 min. The Ki (as a rule, the equilibrium dissociation constant of an inhibitor or competing ligand from its target) on h-5-HT6 receptor is 0.41 nM; on h-5-HT2B receptor it was 71 nM; at Rat 5-HT6, 1.5 nM; in [2], greater than 1000 nM; on h-5-HT2A receptor (text, read-out: Ki at 5-HT2A receptor) it was 195 nM. For the same compound, the “Selectivity for 5-HT6 over 5-HT2B” value on h-5-HT2B receptor is recorded as 173.2 fold. The “Free [brain]” value in [3] (3 min after dose) stood at 53.4 ng/g; in data set [3] (5 min after dose) it was 55.3 ng/g. In addition, the entries for the “Plasma Conc.” value in data set [3] (3 min after dose) and in data set [3] (5 min after dose) were 49.2 ng/mL and 29.0 ng/mL, respectively. In addition, the “Free B/P Ratio” value in [3] (3 min after dose) is 1.1; in [3] (5 min after dose), 1.7. Also, the “Selectivity for 5-HT6 v. 5-HT2A” value at h-5-HT2A receptor (ratio of human 5-HT2A Ki to human 5-HT6 Ki) came to 475.6 ×. Besides, the “Selectivity for 5-HT6 over 5-HT2A” value at h-5-HT2A receptor (text) came to 475.6 fold; at h-5-HT2A receptor (text, listed as Example (1)), 475 fold.
Take `CN1CCN(c2cccc3cc(S(=O)(=O)c4cccc(F)c4)cnc23)CC1` [GSK-215083, reference compound]: the Ki came out at 3.2 nM on Mk striatum 5-HT6 and 0.395 nM at h-5-HT2A receptor (human 5-HT2A, read-out: Human 5-HT2A Ki).
